Results published in patent US10428104B2, “Substituted nucleoside derivatives useful as anticancer agents” (Pfizer Inc., priority 2015, dated 2019).

Target: PRMT5/MEP50 protein complex (Homo sapiens (Human), UniProt O14744)
Assay: PRMT5 biochemical assay (3H-SAM methylation of H4(1-21) peptide, filter plate scintillation counting)
Settings: PRMT5 enzyme inhibition; 10 nM PRMT5/MEP50 complex, 200 nM H4(1-21) peptide, 1 uM SAM, 25 minute incubation at room temperature
Description: Following dilution, 1 ul was added to an empty 96-well microtiter plate. PRMT5/MEP50 protein complex was combined with H4(1-21) peptide ([…]) in PRMT5 assay buffer (50 mM Tris pH 8.5, 50 mM NaCl, 5 mM MgCl2, 1 mM EDTA, 1 mM TCEP) and 44 ul was added to the microtiter plate containing compound. S-Adenosyl-L-methionine (SAM) was prepared by combining ^3H labelled SAM with unlabelled SAM in PRMT5 assay buffer such that the final SAM concentration was 10 uM and the specific activity was 0.2 uCi/ul. The reaction was initiated by adding 5 ul of SAM stock to the microtiter plate. The final reaction conditions were 10 nM PRMT5/MEP50 complex, 200 nM peptide and 1 uM SAM. Following a 25 minute incubation at room temperature, the reaction was stopped with the addition of 100 uL of 20% TCA. The 3H-peptide product was captured using a 96-well filter plate (MSIPN4B, Millipore) and washed 5 times with PBS buffer. Scintillation fluid (100 ul) was added to the dried filter plate and counted in a liquid scintillation counter. IC50 values were determined by fitting the data to the standard 4-parameter dose response equation using Pfizer proprietary software.
In the final construct PRMT5 ORF was under control of polyhedrin promoter (polH) while MEP50 ORF was under control of p10 promoter.
Viruses were generated using standard Bac-to-Bac viral generation protocols (Life Technologies) and amplified to high-titer passage two (P2) stocks. Protein over expression was conducted in exponentially growing Sf21 cells infected at 2×106 with P2 viral stock at MOI=1 of PRMT5-Mep50 dual construct virus and Mep50 construct virus at 1:1 ratio. The co-expression protocol was used to supplement additional Mep50 for FlagPRMT5-Mep50 heterodimer formation. Cells were harvested at 72 h post infection by centrifugation and frozen pellet was stored at −80° C.
FlagPRMT5-Mep50 complex was purified from cell lysate using Flag affinity chromatography. Cell were lyzed in 50 mM Tris 7.5, 200 mM NaCl, 10% glycerol, 0.25 mM TCEP supplemented with EDTA-free protease inhibitor cocktail (Roche). 1.5 ml of lysis buffer was added per 1 g of frozen pellet. The clarified lysate was obtained by centrifugation of cell lysate at 10,000 g for 1 h at 4 C. 5 ml of Anti-FLAG M2 Agarose (Sigma) […] was added to the clarified lysate to isolate FlagPRMT5-Mep50. Following batch binding for 3 h at 4 C, Flag resin bound to FlagPRMT5-Mep50 washed with 20 column volumes (CV) of 50 mM Tris 7.5, 200 mM NaCl, 10% glycerol, 0.25 mM TCEP followed by elution of FlagPRMT5-Mep50 complex using 3 CV of 50 mM Tris 7.5, 200 mM NaCl, 10% glycerol, 0.25 mM TCEP supplemented with 200 ug/ml of FLAG Peptide ([…]). […] Peak fractions containing FlagPRMT5-Mep50 complex were concentrated to 1.6 mg/ml, flash frozen in small aliquots using liquid nitrogen and stored at −80° C.

Sequence of PRMT5/MEP50 protein complex (O14744 other isoform, or with tags, fused parts or gaps): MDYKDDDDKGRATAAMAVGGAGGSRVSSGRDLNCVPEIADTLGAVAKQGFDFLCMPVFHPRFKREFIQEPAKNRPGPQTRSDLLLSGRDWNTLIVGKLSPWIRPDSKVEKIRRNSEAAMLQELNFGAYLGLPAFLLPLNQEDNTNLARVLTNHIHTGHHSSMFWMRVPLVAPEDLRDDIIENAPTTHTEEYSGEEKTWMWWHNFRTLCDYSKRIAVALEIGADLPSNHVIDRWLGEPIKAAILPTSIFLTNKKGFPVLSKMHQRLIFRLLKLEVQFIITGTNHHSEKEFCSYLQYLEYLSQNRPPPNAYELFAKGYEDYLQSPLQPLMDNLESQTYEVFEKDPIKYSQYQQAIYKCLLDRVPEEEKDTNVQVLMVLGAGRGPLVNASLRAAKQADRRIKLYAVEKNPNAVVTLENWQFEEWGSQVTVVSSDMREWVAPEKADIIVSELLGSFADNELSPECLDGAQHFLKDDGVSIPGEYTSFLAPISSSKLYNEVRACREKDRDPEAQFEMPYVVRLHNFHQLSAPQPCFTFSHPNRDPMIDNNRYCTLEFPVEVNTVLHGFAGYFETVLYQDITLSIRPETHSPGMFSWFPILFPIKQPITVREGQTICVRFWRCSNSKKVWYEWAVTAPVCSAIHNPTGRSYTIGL
Sequence of PRMT5/MEP50 protein complex (Q9BQA1 whole entry partner): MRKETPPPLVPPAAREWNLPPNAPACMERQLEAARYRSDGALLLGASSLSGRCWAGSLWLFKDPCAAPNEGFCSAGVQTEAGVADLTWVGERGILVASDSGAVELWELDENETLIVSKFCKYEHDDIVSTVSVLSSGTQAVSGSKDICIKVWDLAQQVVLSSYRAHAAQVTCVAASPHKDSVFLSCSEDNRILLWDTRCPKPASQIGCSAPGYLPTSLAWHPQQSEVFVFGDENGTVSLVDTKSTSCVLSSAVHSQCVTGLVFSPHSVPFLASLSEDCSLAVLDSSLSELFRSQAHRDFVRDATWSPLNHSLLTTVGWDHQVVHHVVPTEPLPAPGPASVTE

IC50 | Structure (SMILES)
30800 nM | Cc1ncnc2c1ccn2[C@@H]1O[C@H](C(O)CS(=O)(=O)c2ccccc2)[C@@H](O)[C@H]1O (stereo in doubt) [Example 24, (2S,3S,4R,5R)-2-((R)-1-hydroxy-2-(phenylsulfonyl)ethyl)-5-(4-methyl-7H-pyrrolo[2,3-d]pyrimidin-7-yl)tetrahydrofuran-3,4-diol]
333 nM | CC[C@@H](O)[C@H]1O[C@@H](n2cnc3c(N)ncnc32)[C@H](O)[C@@H]1O [Example 3, (2R,3R,4S,5R)-2-(6-amino-9H-purin-9-yl)-5-((R)-1-hydroxypropyl)tetrahydrofuran-3,4-diol]
44100 nM | CC[C@H](O)[C@H]1O[C@@H](n2cnc3c(N)ncnc32)[C@H](O)[C@@H]1O [Example 4, (2R,3R,4S,5R)-2-(6-amino-9H-purin-9-yl)-5-((S)-1-hydroxypropyl)tetrahydrofuran-3,4-diol]
159 nM | CCC[C@@H](O)[C@H]1O[C@@H](n2cnc3c(N)ncnc32)[C@H](O)[C@@H]1O [Example 5, (2R,3R,4S,5R)-2-(6-amino-9H-purin-9-yl)-5-((R)-1-hydroxybutyl)tetrahydrofuran-3,4-diol]
21100 nM | CCC[C@H](O)[C@H]1O[C@@H](n2cnc3c(N)ncnc32)[C@H](O)[C@@H]1O [Example 6, (2R,3R,4S,5R)-2-(6-amino-9H-purin-9-yl)-5-((S)-1-hydroxybutyl)tetrahydrofuran-3,4-diol]
1830 nM | CC(C)C[C@@H](O)[C@H]1O[C@@H](n2cnc3c(N)ncnc32)[C@H](O)[C@@H]1O [Example 7, (2R,3R,4S,5R)-2-(6-amino-9H-purin-9-yl)-5-((R)-1-hydroxy-3-methylbutyl)tetrahydrofuran-3,4-diol]
17900 nM | CC(C)C[C@H](O)[C@H]1O[C@@H](n2cnc3c(N)ncnc32)[C@H](O)[C@@H]1O [Example 8, (2R,3R,4S,5R)-2-(6-amino-9H-purin-9-yl)-5-((S)-1-hydroxy-3-methylbutyl)tetrahydrofuran-3,4-diol]
17 nM | Cc1ncnc2c1ccn2[C@@H]1O[C@H]([C@H](O)c2ccnc(N(C)C)c2)[C@@H](O)[C@H]1O [Example 14, (2R,3S,4R,5R)-2-((R)-(2-(dimethylamino)pyridin-4-yl)(hydroxy)methyl)-5-(4-methyl-7H-pyrrolo[2,3-d]pyrimidin-7-yl)tetrahydrofuran-3,4-diol]
39 nM | Cc1ncnc2c1ccn2[C@@H]1O[C@H]([C@H](O)c2ccc3cnn(C)c3c2)[C@@H](O)[C@H]1O [Example 15, (2R,3S,4R,5R)-2-((R)-hydroxy(1-methyl-1H-indazol-6-yl)methyl)-5-(4-methyl-7H-pyrrolo[2,3-d]pyrimidin-7-yl)tetrahydrofuran-3,4-diol]
23 nM | Cc1ncnc2c1ccn2[C@@H]1O[C@H]([C@H](O)c2cccc(C(F)(F)F)c2)[C@@H](O)[C@H]1O [Example 16, (2R,3S,4R,5R)-2-((R)-hydroxy(3-(trifluoromethyl)phenyl)methyl)-5-(4-methyl-7H-pyrrolo[2,3-d]pyrimidin-7-yl)tetrahydrofuran-3,4-diol]
2270 nM | Cc1ncnc2c1ccn2[C@@H]1OC([C@H](O)c2cc(F)cc(C(F)(F)F)c2)[C@@H](O)[C@H]1O (stereo partly drawn) [Example 17, (3S,4R,5R)-2-((3-fluoro-5-(trifluoromethyl)phenyl)(hydroxy)methyl)-5-(4-methyl-7H-pyrrolo[2,3-d]pyrimidin-7-yl)tetrahydrofuran-3,4-diol]
4 nM | Cc1ncnc2c1ccn2[C@@H]1O[C@H]([C@H](O)c2ccc(F)c(C(F)(F)F)c2)[C@@H](O)[C@H]1O [Example 18, (2R,3S,4R,5R)-2-((R)-(4-fluoro-3-(trifluoromethyl)phenyl)(hydroxy)methyl)-5-(4-methyl-7H-pyrrolo[2,3-d]pyrimidin-7-yl)tetrahydrofuran-3,4-diol]
65 nM | Cc1ncnc2c1ccn2[C@@H]1O[C@H]([C@H](O)c2cccc(S(C)(=O)=O)c2)[C@@H](O)[C@H]1O [Example 19, (2R,3S,4R,5R)-2-((R)-hydroxy(3-(methylsulfonyl)phenyl)methyl)-5-(4-methyl-7H-pyrrolo[2,3-d]pyrimidin-7-yl)tetrahydrofuran-3,4-diol]
54 nM | Cc1ncnc2c1ccn2[C@@H]1O[C@H]([C@H](O)c2ccc(S(C)(=O)=O)cc2)[C@@H](O)[C@H]1O [Example 20, (2R,3S,4R,5R)-2-((R)-hydroxy(4-(methylsulfonyl)phenyl)methyl)-5-(4-methyl-7H-pyrrolo[2,3-d]pyrimidin-7-yl)tetrahydrofuran-3,4-diol]
33 nM | Cc1ncnc2c1ccn2[C@@H]1O[C@H]([C@H](O)c2ccc3occ(C(F)F)c3c2)[C@@H](O)[C@H]1O [Example 21, (2R,3S,4R,5R)-2-((R)-(3-(difluoromethyl)benzofuran-5-yl)(hydroxy)methyl)-5-(4-methyl-7H-pyrrolo[2,3-d]pyrimidin-7-yl)tetrahydrofuran-3,4-diol]
108 nM | Cc1ncnc2c1ccn2[C@@H]1O[C@H]([C@H](O)c2ccc3ncn(C(F)F)c3c2)[C@@H](O)[C@H]1O [Example 22, (2R,3S,4R,5R)-2-((R)-(1-(difluoromethyl)-1H-benzo[d]imidazol-6-yl)(hydroxy)methyl)-5-(4-methyl-7H-pyrrolo[2,3-d]pyrimidin-7-yl)tetrahydrofuran-3,4-diol]
793 nM | Cc1ncnc2c1ccn2[C@@H]1O[C@H]([C@H](O)c2ccc3c(c2)ncn3C(F)F)[C@@H](O)[C@H]1O [Example 23, (2R,3S,4R,5R)-2-((R)-(1-(difluoromethyl)-1H-benzo[d]imidazol-5-yl)(hydroxy)methyl)-5-(4-methyl-7H-pyrrolo[2,3-d]pyrimidin-7-yl)tetrahydrofuran-3,4-diol]
11200 nM | Cc1ncnc2c1ccn2[C@@H]1O[C@H]([C@H](O)Cc2ccccc2)[C@@H](O)[C@H]1O [Example 28, (2R,3S,4R,5R)-2-((R)-1-hydroxy-2-phenylethyl)-5-(4-methyl-7H-pyrrolo[2,3-d]pyrimidin-7-yl)tetrahydrofuran-3,4-diol]
200000 nM | Cc1ncnc2c1ccn2[C@@H]1O[C@H]([C@@H](O)Cc2ccccc2)[C@@H](O)[C@H]1O [Example 29, (2R,3S,4R,5R)-2-((S)-1-hydroxy-2-phenylethyl)-5-(4-methyl-7H-pyrrolo[2,3-d]pyrimidin-7-yl)tetrahydrofuran-3,4-diol]
752 nM | Cc1ncnc2c1ccn2[C@@H]1O[C@H]([C@H](O)CCc2ccccc2)[C@@H](O)[C@H]1O [Example 30, (2R,3S,4R,5R)-2-((R)-1-hydroxy-3-phenylpropyl)-5-(4-methyl-7H-pyrrolo[2,3-d]pyrimidin-7-yl)tetrahydrofuran-3,4-diol]
61700 nM | Cc1ncnc2c1ccn2[C@@H]1O[C@H]([C@@H](O)CCc2ccccc2)[C@@H](O)[C@H]1O [Example 31, (2R,3S,4R,5R)-2-((S)-1-hydroxy-3-phenylpropyl)-5-(4-methyl-7H-pyrrolo[2,3-d]pyrimidin-7-yl)tetrahydrofuran-3,4-diol]
1740 nM | Cc1ncnc2c1ccn2[C@@H]1O[C@H]([C@@H](O)c2cccc(F)c2)[C@@H](O)[C@H]1O [Example 35, (2R,3S,4R,5R)-2-((S)-(3-fluorophenyl)(hydroxy)methyl)-5-(4-methyl-7H-pyrrolo[2,3-d]pyrimidin-7-yl)tetrahydrofuran-3,4-diol]
3850 nM | CC[C@H](O)[C@H]1O[C@@H](n2ccc3c(C)ncnc32)[C@H](O)[C@@H]1O [Example 41, (2R,3S,4R,5R)-2-((S)-1-hydroxypropyl)-5-(4-methyl-7H-pyrrolo[2,3-d]pyrimidin-7-yl)tetrahydrofuran-3,4-diol]
663 nM | Cc1ncnc2c1ccn2[C@@H]1O[C@H]([C@H](O)C2CCCC2)[C@@H](O)[C@H]1O [Example 42, (2R,3S,4R,5R)-2-((R)-cyclopentyl(hydroxy)methyl)-5-(4-methyl-7H-pyrrolo[2,3-d]pyrimidin-7-yl)tetrahydrofuran-3,4-diol]
